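A five-concentration, 48-hour dose response in 96-well plates underlies each endpoint, interpolated linearly between surrounding concentrations. At the TGI there is no net growth.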
Key:
Experiment in all cases: inhibition of tumour cell growth, NCI panel, 48 h
OVCAR-5 ovarian = system: OVCAR-5 ovarian
UACC-257 melanoma = system: UACC-257 melanoma
OVCAR-3 ovarian = system: OVCAR-3 ovarian
MALME-3M melanoma = system: MALME-3M melanoma
RXF 393 renal = system: RXF 393 renal
NCI-H460 lung = system: NCI-H460 lung
NCI-H226 lung = system: NCI-H226 lung
TK-10 renal = system: TK-10 renal
OVCAR-4 ovarian = system: OVCAR-4 ovarian
NCI-H522 lung = system: NCI-H522 lung
A549 NSCLC = system: A549 NSCLC
A498 renal = system: A498 renal
SR leukemia = system: SR leukemia
HCT-15 colon = system: HCT-15 colon
HOP-62 NSCLC = system: HOP-62 NSCLC
SN12C renal = system: SN12C renal
SF-539 CNS = system: SF-539 CNS
COLO 205 colon = system: COLO 205 colon

Measured: TGI

Cc1ccc(S(=O)(=O)OC2C(C3COC(C)(C)O3)OC3OC(C)(C)OC32)cc1 (stereo not given)
not listed: SF-539 CNS | COLO 205 colon
> 100 µM: all other assays above

O=[N+]([O-])c1cc(Cl)cc2cc(Cl)cnc12
> 100 µM: all assays above

COC(=O)CCn1cnc2c(SC)ncnc21
not listed: HCT-15 colon
> 100 µM: all other assays above

O=S(CCCl)c1c2ccccc2nc2ccccc12 (stereo not given)
35.6 µM: NCI-H522 lung
88.7 µM: SN12C renal
> 100 µM: all other assays above

OC1CN2CCS[C@H]2C(O)C1O (stereo not given in full)
not listed: SN12C renal | SF-539 CNS
> 100 µM: all other assays above

O=C(Cc1ccc(Cl)c(Cl)c1)N(CCc1ccc(Cl)c(Cl)c1)CCN1CCCC1
5.28 µM: OVCAR-4 ovarian
3.48 µM: OVCAR-5 ovarian
3.3 µM: NCI-H522 lung
3.34 µM: RXF 393 renal
3.38 µM: COLO 205 colon | HOP-62 NSCLC
5.47 µM: OVCAR-3 ovarian
3.51 µM: UACC-257 melanoma
3.16 µM: MALME-3M melanoma
4.91 µM: NCI-H226 lung
3.7 µM: HCT-15 colon
3.22 µM: TK-10 renal
3.31 µM: SF-539 CNS
4.25 µM: A549 NSCLC
3.45 µM: A498 renal
2.98 µM: SR leukemia
3.39 µM: NCI-H460 lung

O=C(CCCl)NNC1=NCCN1
> 100 µM: all assays above
